Source: patent US11180470B2, “Herbicidal pyrimidine compounds” (BASF SE, priority 2016, dated 2021)

How the values were obtained:
ECHCG [1] = assay: greenhouse experiment, post-emergence treatment; assay type: in vivo, Echinocloa crus-galli; details: post-emergence method, scale from 0 to 100
Procedure: The seeds of the test plants were sown separately for each species. […] For this purpose, the test plants were either sown directly and grown in the same containers, or they were first grown separately as seedlings and transplanted into the test containers a few days prior to treatment. Depending on the species, the plants were kept at 10-25° C. or 20-35° C., respectively. The test period extended over 2 to 4 weeks. During this time, the plants were tended, and their response to the individual treatments was evaluated. Evaluation was carried out using a scale from 0 to 100. 100 means no emergence of the plants, or complete destruction of at least the aerial moieties, and 0 means no damage, or normal course of growth. A good herbicidal activity is given at values of at least 70 and a very good herbicidal activity is given at values of at least 85. The plants used in the greenhouse experiments were of the following species: [table]

ECHCG [2] = assay: greenhouse experiment, pre-emergence treatment; assay type: in vivo, Echinocloa crus-galli; details: pre-emergence method, scale from 0 to 100
Description: (§1) The seeds of the test plants were sown separately for each species. For the pre-emergence treatment, the active ingredients, which had been suspended or emulsified in water, were applied directly after sowing by means of finely distributing nozzles. The containers were irrigated gently to promote germination and growth and subsequently covered with transparent plastic hoods until the plants had rooted. This cover caused uniform germination of the test plants, unless this had been impaired by the active ingredients. Depending on the species, the plants were kept at 10-25° C. or 20-35° C., respectively. The test period extended over 2 to 4 weeks. During this time, the plants were tended, and their response to the individual treatments was evaluated. Evaluation was carried out using a scale from 0 to 100. 100 means no emergence of the plants, or complete destruction of at least the aerial moieties, and 0 means no damage, or normal course of growth. A good herbicidal activity is given at values of at least 70 and a very good herbicidal activity is given at values of at least 85. The plants used in the greenhouse experiments were of the following species: [table]

ALOMY = assay: greenhouse experiment, post-emergence treatment; assay type: in vivo, Alopecurus myosuroides; details: post-emergence method, scale from 0 to 100
Description: (§2) The culture containers used were plastic flowerpots containing loamy sand with approximately 3.0% of humus as the substrate. The seeds of the test plants were sown separately for each species.
(§3) For the post-emergence treatment, the test plants were first grown to a height of 3 to 15 cm, depending on the plant habit, and only then treated with the active ingredients which had been suspended or emulsified in water. For this purpose, the test plants were either sown directly and grown in the same containers, or they were first grown separately as seedlings and transplanted into the test containers a few days prior to treatment.
(§4) Depending on the species, the plants were kept at 10-25° C. or 20-35° C., respectively.
(§5) The test period extended over 2 to 4 weeks. During this time, the plants were tended, and their response to the individual treatments was evaluated.
(§6) Evaluation was carried out using a scale from 0 to 100. 100 means no emergence of the plants, or complete destruction of at least the aerial moieties, and 0 means no damage, or normal course of growth. A good herbicidal activity is given at values of at least 70 and a very good herbicidal activity is given at values of at least 85.
(§7) The plants used in the greenhouse experiments were of the following species: […]

AVEFA = assay: greenhouse experiment, post-emergence treatment; assay type: in vivo, Avena fatua; details: post-emergence method, scale from 0 to 100
Description: as §2, §3, §4, §5, §6, §7

APESV = assay: greenhouse experiment, pre-emergence treatment; assay type: in vivo, Apera spica-venti; details: pre-emergence method, scale from 0 to 100
Description: as §1

COC(=O)c1nc(C2CC2)ncc1-c1cscc1C [Example 7]
herbicidal activity against ECHCG (ECHCG [1]; application rate 2000 g/ha): very good (a very good herbicidal activity is given at values of at least 85)
herbicidal activity against ECHCG (ECHCG [2]; application rate 2000 g/ha): very good (a very good herbicidal activity is given at values of at least 85)

O=C(O)c1nc(C2CC2)ncc1-c1nc(C(F)(F)F)ccc1F [Example 62]
herbicidal activity against ALOMY (ALOMY; application rate 2000 g/ha): very good (a very good herbicidal activity is given at values of at least 85)
herbicidal activity against AVEFA (AVEFA; application rate 2000 g/ha): very good (a very good herbicidal activity is given at values of at least 85)
herbicidal activity against ECHCG (ECHCG [1]; application rate 2000 g/ha): very good (a very good herbicidal activity is given at values of at least 85)
herbicidal activity against APESV (APESV; application rate 2000 g/ha): very good (a very good herbicidal activity is given at values of at least 85)
herbicidal activity against ECHCG (ECHCG [2]; application rate 2000 g/ha): very good (a very good herbicidal activity is given at values of at least 85)

O=C(O)c1nc(C2CC2)ncc1-c1ncc(F)cc1F [Example 36]
herbicidal activity against ALOMY (ALOMY; application rate 2000 g/ha): very good (a very good herbicidal activity is given at values of at least 85)
herbicidal activity against AVEFA (AVEFA; application rate 2000 g/ha): very good (a very good herbicidal activity is given at values of at least 85)
herbicidal activity against APESV (APESV; application rate 2000 g/ha): very good (a very good herbicidal activity is given at values of at least 85)
herbicidal activity against ECHCG (ECHCG [2]; application rate 2000 g/ha): very good (a very good herbicidal activity is given at values of at least 85)

O=C(O)c1nc(C2CC2)ncc1-c1ccoc1Br [Example 14]
herbicidal activity against APESV (APESV; application rate 1000 g/ha): good (A good herbicidal activity is given at values of at least 70)
herbicidal activity against ECHCG (ECHCG [2]; application rate 1000 g/ha): very good (a very good herbicidal activity is given at values of at least 85)

COC(=O)c1nc(C2CC2)ncc1-c1ncccc1Cl [Example 16]
herbicidal activity against ALOMY (ALOMY; application rate 1000 g/ha): very good (a very good herbicidal activity is given at values of at least 85)
herbicidal activity against AVEFA (AVEFA; application rate 1000 g/ha): good (A good herbicidal activity is given at values of at least 70)
herbicidal activity against ECHCG (ECHCG [1]; application rate 1000 g/ha): very good (a very good herbicidal activity is given at values of at least 85)
herbicidal activity against APESV (APESV; application rate 1000 g/ha): good (A good herbicidal activity is given at values of at least 70)
herbicidal activity against ECHCG (ECHCG [2]; application rate 1000 g/ha): good (A good herbicidal activity is given at values of at least 70)

COC(=O)c1nc(C2CC2)ncc1-c1cccnc1F [Example 25]
herbicidal activity against ECHCG (ECHCG [1]; application rate 1000 g/ha): very good (a very good herbicidal activity is given at values of at least 85)

COC(=O)c1nc(C2CC2)ncc1-c1ccoc1Cl [Example 15]
herbicidal activity against ECHCG (ECHCG [2]; application rate 2000 g/ha): good (A good herbicidal activity is given at values of at least 70)

O=C(O)c1nc(C2CC2)ncc1-c1cccnc1Br [Example 20]
herbicidal activity against AVEFA (AVEFA; application rate 2000 g/ha): very good (a very good herbicidal activity is given at values of at least 85)
herbicidal activity against ECHCG (ECHCG [1]; application rate 2000 g/ha): very good (a very good herbicidal activity is given at values of at least 85)
herbicidal activity against APESV (APESV; application rate 2000 g/ha): very good (a very good herbicidal activity is given at values of at least 85)
herbicidal activity against ECHCG (ECHCG [2]; application rate 2000 g/ha): very good (a very good herbicidal activity is given at values of at least 85)

Cc1cscc1-c1cnc(C2CC2)nc1C(=O)O [Example 6]
herbicidal activity against ECHCG (ECHCG [1]; application rate 2000 g/ha): very good (a very good herbicidal activity is given at values of at least 85)
herbicidal activity against APESV (APESV; application rate 2000 g/ha): very good (a very good herbicidal activity is given at values of at least 85)
herbicidal activity against ECHCG (ECHCG [2]; application rate 2000 g/ha): very good (a very good herbicidal activity is given at values of at least 85)

COC(=O)c1nc(C2CC2)ncc1-c1ccsc1C [Example 5]
herbicidal activity against ECHCG (ECHCG [2]; application rate 2000 g/ha): very good (a very good herbicidal activity is given at values of at least 85)

COc1ncc(-c2ncccc2Br)c(C(=O)O)n1 [Example 51]
herbicidal activity against ALOMY (ALOMY; application rate 2000 g/ha): good (A good herbicidal activity is given at values of at least 70)
herbicidal activity against AVEFA (AVEFA; application rate 2000 g/ha): good (A good herbicidal activity is given at values of at least 70)
herbicidal activity against ECHCG (ECHCG [1]; application rate 2000 g/ha): good (A good herbicidal activity is given at values of at least 70)

COC(=O)c1nc(C2CC2)ncc1-c1ncc(F)cc1Br [Example 21]
herbicidal activity against ALOMY (ALOMY; application rate 2000 g/ha): very good (a very good herbicidal activity is given at values of at least 85)
herbicidal activity against AVEFA (AVEFA; application rate 2000 g/ha): very good (a very good herbicidal activity is given at values of at least 85)
herbicidal activity against ECHCG (ECHCG [1]; application rate 2000 g/ha): very good (a very good herbicidal activity is given at values of at least 85)
herbicidal activity against APESV (APESV; application rate 2000 g/ha): very good (a very good herbicidal activity is given at values of at least 85)
herbicidal activity against ECHCG (ECHCG [2]; application rate 2000 g/ha): very good (a very good herbicidal activity is given at values of at least 85)

O=C(O)c1nc(C2CC2)ncc1-c1ncccc1F [Example 23]
herbicidal activity against ALOMY (ALOMY; application rate 2000 g/ha): very good (a very good herbicidal activity is given at values of at least 85)
herbicidal activity against ECHCG (ECHCG [1]; application rate 2000 g/ha): very good (a very good herbicidal activity is given at values of at least 85)
herbicidal activity against APESV (APESV; application rate 2000 g/ha): very good (a very good herbicidal activity is given at values of at least 85)
herbicidal activity against ECHCG (ECHCG [2]; application rate 2000 g/ha): very good (a very good herbicidal activity is given at values of at least 85)

CCc1ncc(-c2ncccc2F)c(C(=O)O)n1 [Example 50]
herbicidal activity against ECHCG (ECHCG [1]; application rate 1000 g/ha): very good (a very good herbicidal activity is given at values of at least 85)

COC(=O)c1nc(C2CC2)ncc1-c1sccc1C [Example 4]
herbicidal activity against ECHCG (ECHCG [1]; application rate 2000 g/ha): very good (a very good herbicidal activity is given at values of at least 85)
herbicidal activity against ECHCG (ECHCG [2]; application rate 2000 g/ha): very good (a very good herbicidal activity is given at values of at least 85)

Cc1sccc1-c1cnc(C2CC2)nc1C(=O)O [Example 8]
herbicidal activity against APESV (APESV; application rate 2000 g/ha): very good (a very good herbicidal activity is given at values of at least 85)
herbicidal activity against ECHCG (ECHCG [2]; application rate 2000 g/ha): very good (a very good herbicidal activity is given at values of at least 85)

O=C(O)c1nc(C2CC2)ncc1-c1ccoc1Cl [Example 13]
herbicidal activity against ALOMY (ALOMY; application rate 2000 g/ha): very good (a very good herbicidal activity is given at values of at least 85)
herbicidal activity against ECHCG (ECHCG [1]; application rate 2000 g/ha): very good (a very good herbicidal activity is given at values of at least 85)
herbicidal activity against APESV (APESV; application rate 2000 g/ha): very good (a very good herbicidal activity is given at values of at least 85)
herbicidal activity against ECHCG (ECHCG [2]; application rate 2000 g/ha): very good (a very good herbicidal activity is given at values of at least 85)

CCc1ncc(-c2ncccc2Br)c(C(=O)OC)n1 [Example 43]
herbicidal activity against ECHCG (ECHCG [2]; application rate 2000 g/ha): very good (a very good herbicidal activity is given at values of at least 85)

O=C(O)c1nc(C2CC2)ncc1-c1ccsc1Cl [Example 12]
herbicidal activity against ALOMY (ALOMY; application rate 1000 g/ha): very good (a very good herbicidal activity is given at values of at least 85)
herbicidal activity against AVEFA (AVEFA; application rate 1000 g/ha): very good (a very good herbicidal activity is given at values of at least 85)
herbicidal activity against APESV (APESV; application rate 1000 g/ha): very good (a very good herbicidal activity is given at values of at least 85)
herbicidal activity against ECHCG (ECHCG [2]; application rate 1000 g/ha): very good (a very good herbicidal activity is given at values of at least 85)

COC(=O)c1nc(C2CC2)ncc1-c1ccsc1Cl [Example 11]
herbicidal activity against ALOMY (ALOMY; application rate 1000 g/ha): very good (a very good herbicidal activity is given at values of at least 85)
herbicidal activity against AVEFA (AVEFA; application rate 1000 g/ha): good (A good herbicidal activity is given at values of at least 70)
herbicidal activity against ECHCG (ECHCG [2]; application rate 1000 g/ha): very good (a very good herbicidal activity is given at values of at least 85)

O=C(O)c1nc(C2CC2)ncc1-c1ccncc1F [Example 37]
herbicidal activity against ALOMY (ALOMY; application rate 2000 g/ha): good (A good herbicidal activity is given at values of at least 70)
herbicidal activity against ECHCG (ECHCG [1]; application rate 2000 g/ha): good (A good herbicidal activity is given at values of at least 70)
herbicidal activity against APESV (APESV; application rate 2000 g/ha): good (A good herbicidal activity is given at values of at least 70)
herbicidal activity against ECHCG (ECHCG [2]; application rate 2000 g/ha): very good (a very good herbicidal activity is given at values of at least 85)
